# Source: ChEMBL document CHEMBL1201862, “PubChem BioAssay data set” (2004)
# “And” between values parts separate entries of the source, which are not always exact repeats. Identical values can stand only once.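 Growth conditions: 96-well plates. Treatment: test compound, 48 hours, 5 concentrations. Analysis: linear interpolation between bracketing concentrations; unreached endpoints set to highest concentration. GI50 marks 50% less growth.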 The source made the active and inactive calls. Cut-off read from the data, not from the text of the source: active = GI50 up to about 1.1 µM and inactive = higher.
# Legend:
# Experiment in all cases: DTP human tumour cell line panel, 48 h
# [1] = test system: SR
# [2] = test system: OVCAR-5
# [3] = test system: ACHN
# [4] = test system: SF-539
# [5] = test system: MDA-MB-231
# [6] = test system: K562
# [7] = test system: HCC 2998
# [8] = test system: NCI-H23
# [9] = test system: SF-295
# [10] = test system: OVCAR-3
# [11] = test system: OVCAR-8
# [12] = test system: UACC-257
# [13] = test system: SK-MEL-2
# [14] = test system: HCT-15
# [15] = test system: A498
# [16] = test system: SNB-75
# [17] = test system: NCI-H460
# [18] = test system: RPMI-8226
# [19] = test system: BT-549
# [20] = test system: HL-60
SMILES,GI50 [1],GI50 [2],GI50 [3],GI50 [4],GI50 [5],GI50 [6],GI50 [7],GI50 [8],GI50 [9],GI50 [10],GI50 [11],GI50 [12],GI50 [13],GI50 [14] [µM],GI50 [15],GI50 [16],GI50 [17],GI50 [18],GI50 [19],GI50 [20]
CC1=CCC[C@H]2[C@](C)(CC3=CC(=O)C(SCC(C)C)=CC3=O)[C@@H](C)CC[C@]12C,7.29 µM (inactive),18.5 µM (inactive),15.6 µM (inactive),18 µM (inactive),24.6 µM (inactive),5.78 µM (inactive),16.3 µM (inactive),8.99 µM (inactive),16.1 µM (inactive),17.4 µM (inactive),13.3 µM (inactive),17.3 µM (inactive),15.9 µM (inactive),15.1,18.8 µM (inactive),10.9 µM (inactive),14.6 µM (inactive),3.8 µM (inactive),17.6 µM (inactive),
Clc1ccccc1NN(Cc1ccncc1)c1ccccc1Cl,13.2 µM (inactive),17.5 µM (inactive),16.6 µM (inactive),18.2 µM (inactive),13.6 µM (inactive),10.4 µM (inactive),,15.6 µM (inactive),16.7 µM (inactive),13.5 µM (inactive),13.8 µM (inactive),,14.4 µM (inactive),16.3,19.1 µM (inactive),17.5 µM (inactive),,10.8 µM (inactive),19.1 µM (inactive),17 µM (inactive)
CCOC(=O)C(NCc1ccccc1)(NC(=O)c1ccccc1)C(F)(F)F (stereo unspecified),32.1 µM (inactive),> 100 µM (inactive),> 100 µM (inactive),> 100 µM (inactive),21.4 µM (inactive),60.1 µM (inactive),> 100 µM (inactive),> 100 µM (inactive),> 100 µM (inactive),89.7 µM (inactive),98.9 µM (inactive),90.4 µM (inactive),> 100 µM (inactive),78.3,,68.1 µM (inactive),,33.3 µM (inactive),> 100 µM (inactive),29 µM (inactive)
COc1ccccc1[S+]([O-])Nc1ccccc1 (stereo unspecified),21.6 µM (inactive),> 100 µM (inactive),87.7 µM (inactive),25.3 µM (inactive),> 100 µM (inactive),25.4 µM (inactive),83.2 µM (inactive),> 100 µM (inactive),> 100 µM (inactive),> 100 µM (inactive),> 100 µM (inactive),50.4 µM (inactive),34 µM (inactive),22.8,,,88.1 µM (inactive),72.9 µM (inactive),17.4 µM (inactive),82.8 µM (inactive)
Sc1nnc(-c2ccccc2Nc2ccccc2-c2nnc(S)n2-c2ccccc2)n1-c1ccccc1,37 µM (inactive),47.9 µM (inactive),38.3 µM (inactive),28.8 µM (inactive),22.7 µM (inactive),52.7 µM (inactive),36.6 µM (inactive),34.4 µM (inactive),43.1 µM (inactive),56.6 µM (inactive),72.6 µM (inactive),44.3 µM (inactive),27 µM (inactive),34.3,,37.5 µM (inactive),37.1 µM (inactive),20 µM (inactive),28.1 µM (inactive),22.8 µM (inactive)
O=C(Cn1cc(-c2ccccc2)nn1)NC1CCCC1,> 100 µM (inactive),> 100 µM (inactive),> 100 µM (inactive),> 100 µM (inactive),> 100 µM (inactive),> 100 µM (inactive),> 100 µM (inactive),> 100 µM (inactive),> 100 µM (inactive),,> 100 µM (inactive),> 100 µM (inactive),> 100 µM (inactive),> 100,,56.2 µM (inactive),> 100 µM (inactive),> 100 µM (inactive),> 100 µM (inactive),> 100 µM (inactive)
CC1CCC2(C(=O)O)CCC3(C)C(=CCC4C5(C)CCC(O)C(C)(C)C5CCC43C)C2C1C (stereo unspecified),19.5 µM (inactive),11.1 µM (inactive) and 10.6 µM (inactive),,13.4 µM (inactive) and 11 µM (inactive),12.5 µM (inactive),3.84 µM (inactive),11.1 µM (inactive) and 10.6 µM (inactive),18.5 µM (inactive) and 11.9 µM (inactive),3.3 µM (inactive) and 3.22 µM (inactive),7.52 µM (inactive) and 13.8 µM (inactive),13.8 µM (inactive) and 8.3 µM (inactive),,11.2 µM (inactive) and 15.9 µM (inactive),,,,12.4 µM (inactive),10.6 µM (inactive) and 7.1 µM (inactive),19 µM (inactive),3.05 µM (inactive) and 2.64 µM (inactive)
O=C(O)c1ccc(Nc2nc3ccccc3nc2C(=O)O)cc1,> 100 µM (inactive),> 100 µM (inactive),> 100 µM (inactive),> 100 µM (inactive),> 100 µM (inactive),> 100 µM (inactive),> 100 µM (inactive),> 100 µM (inactive),> 100 µM (inactive),> 100 µM (inactive),> 100 µM (inactive),> 100 µM (inactive),> 100 µM (inactive),,,> 100 µM (inactive),> 100 µM (inactive),> 100 µM (inactive),> 100 µM (inactive),> 10 µM (inactive)
CC(=O)Nc1sccc1S(=O)(=O)c1ccc(Cl)cc1,> 100 µM (inactive),> 100 µM (inactive),> 100 µM (inactive),> 100 µM (inactive),> 100 µM (inactive),> 100 µM (inactive),> 100 µM (inactive),> 100 µM (inactive),> 100 µM (inactive),> 100 µM (inactive),> 100 µM (inactive),> 100 µM (inactive),> 100 µM (inactive),> 100,,55.6 µM (inactive),> 100 µM (inactive),> 100 µM (inactive),> 100 µM (inactive),> 100 µM (inactive)
CC(Oc1ccc(Oc2cnc3ccc(Cl)cc3n2)cc1)C(=O)O (stereo unspecified),30.1 µM (inactive),,60 µM (inactive),> 65.2 µM (inactive),> 89.5 µM (inactive),> 100 µM (inactive),> 87.9 µM (inactive),> 76.4 µM (inactive),> 89.9 µM (inactive),> 84.5 µM (inactive),> 80.5 µM (inactive),> 86.3 µM (inactive),> 88.5 µM (inactive),> 74.1,> 62.1 µM (inactive),84.5 µM (inactive),19.1 µM (inactive),> 73.6 µM (inactive),> 73.1 µM (inactive),
O=C(/C=C/c1ccsc1)c1cccs1,> 10 µM (inactive),44.1 µM (inactive),52.1 µM (inactive),32.9 µM (inactive),36 µM (inactive),28.2 µM (inactive),19.7 µM (inactive),22.5 µM (inactive),64.7 µM (inactive),22.1 µM (inactive),> 10 µM (inactive),66.8 µM (inactive),,18.7,> 100 µM (inactive),> 100 µM (inactive),41.7 µM (inactive),,20.8 µM (inactive),
